Each block holds one compound with its values, some of them ahead of it.
Assays:
human DGKζ = human DGKζ (Homo sapiens (Human), UniProt Q13574); experiment: DGKζ LIPGLO assay (extruded liposome substrate, ADP-Glo luminescence); type: biochemical; details: liposome (LIPGLO) assay; read-out: DGK zeta (liposome assay) IC50
human DGKα = human DGKα (Homo sapiens (Human), UniProt P23743); experiment: DGKα ADPGLO assay (detergent/lipid micelle substrate); type: biochemical; details: ADPGLO assay; read-out: DGK alpha ADPGLO IC50
human DGKα, sequence (P23743 whole entry, looked up, the tested form may be a part): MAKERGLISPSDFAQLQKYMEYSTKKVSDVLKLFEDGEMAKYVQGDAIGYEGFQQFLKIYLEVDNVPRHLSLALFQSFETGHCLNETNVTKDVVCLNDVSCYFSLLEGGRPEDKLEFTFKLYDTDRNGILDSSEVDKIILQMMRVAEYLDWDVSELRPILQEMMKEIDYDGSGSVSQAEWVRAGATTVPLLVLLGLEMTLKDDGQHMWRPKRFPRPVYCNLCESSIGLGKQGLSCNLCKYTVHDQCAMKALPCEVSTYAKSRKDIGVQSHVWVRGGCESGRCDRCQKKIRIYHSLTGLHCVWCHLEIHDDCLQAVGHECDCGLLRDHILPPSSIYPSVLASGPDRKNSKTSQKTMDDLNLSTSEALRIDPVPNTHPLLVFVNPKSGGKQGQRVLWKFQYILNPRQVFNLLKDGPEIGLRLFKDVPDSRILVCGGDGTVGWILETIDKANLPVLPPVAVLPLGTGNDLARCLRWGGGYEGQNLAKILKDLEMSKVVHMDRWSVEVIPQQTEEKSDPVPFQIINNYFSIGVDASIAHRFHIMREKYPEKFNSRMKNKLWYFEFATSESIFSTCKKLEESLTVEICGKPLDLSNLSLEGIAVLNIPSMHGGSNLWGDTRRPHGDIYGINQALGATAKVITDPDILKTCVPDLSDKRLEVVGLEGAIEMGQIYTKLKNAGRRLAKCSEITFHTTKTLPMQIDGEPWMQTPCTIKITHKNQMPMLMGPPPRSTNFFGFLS
Method: DGK Alpha ADPGLO (Truncated) IC50 (uM)
The detergent/lipid micelle was prepared by combining 15 g phosphatidylserine (Avanti 840035P) and 1 g diacylglycerol (8008110) and dissolving into 150 mL chloroform in a 2 L round bottom flask. Chloroform was removed under high vacuum by rotary evaporation. […] The lipid/detergent solution was split into 5 mL aliquots and stored at −80° C.

whole blood (pERK) = experiment: pERK Whole Blood; type: cell-based

human DGKζ, sequence (Q13574 other isoform, or with tags, fused parts or gaps): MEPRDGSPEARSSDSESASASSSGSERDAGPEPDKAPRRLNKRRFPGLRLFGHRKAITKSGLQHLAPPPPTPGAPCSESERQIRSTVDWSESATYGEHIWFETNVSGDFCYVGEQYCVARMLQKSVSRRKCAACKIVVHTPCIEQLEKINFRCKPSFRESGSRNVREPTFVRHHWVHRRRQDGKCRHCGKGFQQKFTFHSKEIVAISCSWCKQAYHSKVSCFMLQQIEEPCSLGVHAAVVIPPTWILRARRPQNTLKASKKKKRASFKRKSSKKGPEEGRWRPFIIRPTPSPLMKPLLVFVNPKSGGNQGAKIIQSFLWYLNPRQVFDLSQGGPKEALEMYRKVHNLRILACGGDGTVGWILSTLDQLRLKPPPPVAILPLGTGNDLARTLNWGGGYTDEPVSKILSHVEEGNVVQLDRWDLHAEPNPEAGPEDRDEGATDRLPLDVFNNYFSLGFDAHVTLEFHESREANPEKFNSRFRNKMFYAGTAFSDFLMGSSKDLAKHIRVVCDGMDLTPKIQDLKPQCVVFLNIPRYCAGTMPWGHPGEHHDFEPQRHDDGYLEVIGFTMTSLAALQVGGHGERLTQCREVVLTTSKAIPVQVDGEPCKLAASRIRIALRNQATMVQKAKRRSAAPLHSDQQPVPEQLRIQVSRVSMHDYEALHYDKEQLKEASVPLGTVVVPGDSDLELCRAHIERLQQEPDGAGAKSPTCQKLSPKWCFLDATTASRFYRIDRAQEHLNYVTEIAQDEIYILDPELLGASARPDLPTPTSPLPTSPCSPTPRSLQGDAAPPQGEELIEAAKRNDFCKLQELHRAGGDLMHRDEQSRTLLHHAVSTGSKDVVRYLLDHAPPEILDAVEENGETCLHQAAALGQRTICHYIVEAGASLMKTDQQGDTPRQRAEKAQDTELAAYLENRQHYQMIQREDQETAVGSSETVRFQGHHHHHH

IC50 (human DGKζ): 1240 nM | IC50 (human DGKα): 820 nM | EC50 (whole blood (pERK)): 1890 nM
SMILES: CC[C@@H]1CN(c2nc(=O)n(C)c3ccc(C#N)nc23)[C@@H](CO)CN1C(C)c1ccc(C(F)(F)F)cc1 (single isomer, unassigned) [Example 411]

IC50 (human DGKζ): 440 nM | IC50 (human DGKα): 18000 nM | EC50 (whole blood (pERK)): 930 nM
SMILES: CC[C@@H]1CN(c2nc(=O)n(C)c3ccc(C#N)nc23)[C@@H](C)CN1C(C)c1ccc(C(F)(F)F)c(C#N)c1 (single isomer, unassigned) [Example 356]

IC50 (human DGKζ): 4 nM | IC50 (human DGKα): 25 nM | EC50 (whole blood (pERK)): 50 nM
SMILES: CC[C@@H]1CN(c2nc(=O)n(C)c3ccc(C#N)nc23)[C@@H](C)CN1C(c1ccc(OC)cc1)C(C)C (stereo partly drawn) [Example 314, 4-((2S,5R)-5-ethyl-4-(1-(4-methoxyphenyl)-2-methylpropyl)-2-methylpiperazin-1-yl)-1-methyl-2-oxo-1,2-dihydropyrido[3,2-d]pyrimidine-6-carbonitrile]

IC50 (human DGKζ): 28 nM | IC50 (human DGKα): 11 nM | EC50 (whole blood (pERK)): 230 nM
SMILES: CCOc1ccc(C(CC)N2C[C@H](C)N(c3nc(=O)n(C)c4ccc(C#N)nc34)C[C@H]2CC)cc1 (stereo partly drawn) [Example 306, 4-((2S,5R)-4-(1-(4-ethoxyphenyl)propyl)-5-ethyl-2-methylpiperazin-1-yl)-1-methyl-2-oxo-1,2-dihydropyrido[3,2-d]pyrimidine-6-carbonitrile]

IC50 (human DGKζ): 33600 nM | IC50 (human DGKα): 2840 nM | EC50 (whole blood (pERK)): 6890 nM
SMILES: CC(c1ccc(CN2CC3(COC3)C2)cc1)N1C[C@H](C)N(c2nc(=O)n(C)c3ccc(C#N)nc23)C[C@H]1C (stereo partly drawn) [Example 392, 4-((2S,5R)-4-(1-(4-((2-oxa-6-azaspiro[3.3]heptan-6-yl)methyl)phenyl)ethyl)-2,5-dimethylpiperazin-1-yl)-1-methyl-2-oxo-1,2-dihydropyrido[3,2-d]pyrimidine-6-carbonitrile]

IC50 (human DGKζ): 95 nM | IC50 (human DGKα): 49 nM | EC50 (whole blood (pERK)): 1740 nM
SMILES: CCC(c1ccc(OCC2(C)CC2)cc1)N1C[C@H](C)N(c2nc(=O)n(C)c3ccc(C#N)nc23)C[C@H]1CC (stereo partly drawn) [Example 345, 4-((2S,5R)-5-ethyl-2-methyl-4-(1-(4-((1-methylcyclopropyl)methoxy)phenyl)propyl)piperazin-1-yl)-1-methyl-2-oxo-1,2-dihydropyrido[3,2-d]pyrimidine-6-carbonitrile]

IC50 (human DGKζ): 370 nM | IC50 (human DGKα): 200 nM | EC50 (whole blood (pERK)): 20000 nM
SMILES: C[C@@H]1CN(c2nc(=O)n(C)c3ccc(C#N)nc23)[C@@H](C)CN1C(c1ccc(F)cc1)C12CC(C(F)(F)F)(C1)C2 (stereo partly drawn) [Example 450, 4-((2S,5R)-4-((4-fluorophenyl)(3-(trifluoromethyl)bicyclo[1.1.1]pentan-1-yl)methyl)-2,5-dimethylpiperazin-1-yl)-1-methyl-2-oxo-1,2-dihydropyrido[3,2-d]pyrimidine-6-carbonitrile]

IC50 (human DGKζ): 1100 nM | IC50 (human DGKα): 480 nM | EC50 (whole blood (pERK)): 20000 nM
SMILES: CCC(c1ccc(OCCC(F)(F)F)cc1)N1C[C@H](C)N(c2nc(=O)n(C)c3ccc(C#N)nc23)C[C@H]1CC (single isomer, unassigned) [Example 336]

IC50 (human DGKζ): 45000 nM | IC50 (human DGKα): 9670 nM | EC50 (whole blood (pERK)): 670 nM
SMILES: CC[C@@H]1CN(c2nc(=O)n(C)c3ccc(C#N)nc23)[C@@H](CO)CN1C(C)c1ccc(C(F)(F)F)cc1 (single isomer, unassigned) [Example 412]

IC50 (human DGKζ): 47 nM | IC50 (human DGKα): 750 nM | EC50 (whole blood (pERK)): 20000 nM
SMILES: CCOC[C@@H]1CN(c2nc(=O)n(C)c3ccc(C#N)nc23)[C@@H](C)CN1C(CC)c1ccc(C(F)(F)F)cc1 (stereo partly drawn) [Example 400, 4-((2S,5S)-5-(ethoxymethyl)-2-methyl-4-(1-(4-(trifluoromethyl)phenyl)propyl)piperazin-1-yl)-1-methyl-2-oxo-1,2-dihydropyrido[3,2-d]pyrimidine-6-carbonitrile]

IC50 (human DGKζ): 620 nM | IC50 (human DGKα): 420 nM | EC50 (whole blood (pERK)): 930 nM
SMILES: CCC(c1ccc(F)c(F)c1)N1C[C@H](C)N(c2nc(=O)n(C)c3ccc(C#N)nc23)C[C@H]1CC (stereo partly drawn) [Example 320, 4-((2S,5R)-4-(1-(3,4-difluorophenyl)propyl)-5-ethyl-2-methylpiperazin-1-yl)-1-methyl-2-oxo-1,2-dihydropyrido[3,2-d]pyrimidine-6-carbonitrile]

IC50 (human DGKζ): 5140 nM | IC50 (human DGKα): 13400 nM | EC50 (whole blood (pERK)): 20000 nM
SMILES: CCC(N1C[C@H](C)N(c2nc(=O)n(C)c3ccc(C#N)nc23)C[C@H]1C)C12CC(C(F)(F)F)(C1)C2 (single isomer, unassigned) [Example 448]

IC50 (human DGKζ): 31000 nM | IC50 (human DGKα): 400 nM | EC50 (whole blood (pERK)): 640 nM
SMILES: CC(c1ccc(C(F)(F)F)cc1)N1C[C@H](CO)N(c2nc(=O)n(C)c3ccc(C#N)nc23)C[C@H]1C (single isomer, unassigned) [Example 407]

IC50 (human DGKζ): 740 nM | IC50 (human DGKα): 140 nM | EC50 (whole blood (pERK)): 3140 nM
SMILES: CCC(c1ccc(C(F)(F)F)cc1)N1C[C@H](CC)N(c2nc(=O)[nH]c3ccc(C#N)nc23)C[C@H]1CC (stereo partly drawn) [Example 416, 4-((2S,5R)-2,5-diethyl-4-(1-(4-(trifluoromethyl)phenyl)propyl)piperazin-1-yl)-2-oxo-1,2-dihydropyrido[3,2-d]pyrimidine-6-carbonitrile]

IC50 (human DGKζ): 21 nM | IC50 (human DGKα): 520 nM | EC50 (whole blood (pERK)): 670 nM
SMILES: CC[C@@H]1CN(c2nc(=O)n(C)c3ccc(C#N)nc23)[C@@H](C)CN1C(c1ccc(OC(C)C)cc1)C(C)C (stereo partly drawn) [Example 323, 4-((2S,5R)-5-ethyl-4-(1-(4-isopropoxyphenyl)-2-methylpropyl)-2-methylpiperazin-1-yl)-1-methyl-2-oxo-1,2-dihydropyrido[3,2-d]pyrimidine-6-carbonitrile]

Continued, compound first:

SMILES: [2H]C([2H])([2H])n1c(=O)nc(N2C[C@@H](CC)N(C(C)c3ccc(C(F)(F)F)cc3)C[C@@H]2C)c2nc(Cl)ccc21 (single isomer, unassigned) [Example 418]
IC50 (human DGKζ): 8710 nM | IC50 (human DGKα): 92 nM | EC50 (whole blood (pERK)): 20000 nM

SMILES: CCC(c1ccc(OCC2CCOCC2)cc1)N1C[C@H](C)N(c2nc(=O)n(C)c3ccc(C#N)nc23)C[C@H]1CC (stereo partly drawn) [Example 337, 4-((2S,5R)-5-ethyl-2-methyl-4-(1-(4-((tetrahydro-2H-pyran-4-yl)methoxy)phenyl)propyl)piperazin-1-yl)-1-methyl-2-oxo-1,2-dihydropyrido[3,2-d]pyrimidine-6-carbonitrile]
IC50 (human DGKζ): 100 nM | IC50 (human DGKα): 81 nM | EC50 (whole blood (pERK)): 54 nM

SMILES: CCC(c1ccc(OCc2nccs2)cc1)N1C[C@H](C)N(c2nc(=O)n(C)c3ccc(C#N)nc23)C[C@H]1CC (stereo partly drawn) [Example 347, 4-((2S,5R)-5-ethyl-2-methyl-4-(1-(4-(thiazol-2-ylmethoxy)phenyl)propyl)piperazin-1-yl)-1-methyl-2-oxo-1,2-dihydropyrido[3,2-d]pyrimidine-6-carbonitrile]
IC50 (human DGKζ): 950 nM | IC50 (human DGKα): 320 nM | EC50 (whole blood (pERK)): 1990 nM

SMILES: CCC(c1ccc(OCC2CN(C)C2)cc1)N1C[C@H](C)N(c2nc(=O)n(C)c3ccc(C#N)nc23)C[C@H]1CC (stereo partly drawn) [Example 343, 4-((2 S, 5R)-5-ethyl-2-methyl-4-(1-(4-((1-methylazetidin-3-yl)methoxy)phenyl)propyl)piperazin-1-yl)-1-methyl-2-oxo-1,2-dihydropyrido[3,2-d]pyrimidine-6-carbonitrile]
IC50 (human DGKζ): 6330 nM | IC50 (human DGKα): 740 nM | EC50 (whole blood (pERK)): 73 nM

SMILES: CCC(c1nc(C2CC2)no1)N1C[C@H](CC)N(c2nc(=O)n(C)c3ccc(C#N)nc23)C[C@H]1CC (stereo partly drawn) [Example 364, 4-((2S,5R)-4-(1-(3-cyclopropyl-1,2,4-oxadiazol-5-yl)propyl)-2,5-diethylpiperazin-1-yl)-1-methyl-2-oxo-1,2-dihydropyrido[3,2-d]pyrimidine-6-carbonitrile]
IC50 (human DGKζ): 330 nM | IC50 (human DGKα): 53 nM | EC50 (whole blood (pERK)): 1800 nM

SMILES: CCC(c1c(F)cc(OCC2CC2)cc1F)N1C[C@H](C)N(c2nc(=O)n(C)c3ccc(C#N)nc23)C[C@H]1CC (stereo partly drawn) [Example 327, 4-((2S,5R)-4-(1-(4-(cyclopropylmethoxy)-2,6-difluorophenyl)propyl)-5-ethyl-2-methylpiperazin-1-yl)-1-methyl-2-oxo-1,2-dihydropyrido[3,2-d]pyrimidine-6-carbonitrile]
IC50 (human DGKζ): 57 nM | IC50 (human DGKα): 320 nM | EC50 (whole blood (pERK)): 2070 nM

SMILES: CC(c1ccc(CN2C[C@@H](C)O[C@@H](C)C2)cc1)N1C[C@H](C)N(c2nc(=O)n(C)c3ccc(C#N)nc23)C[C@H]1C (stereo partly drawn) [Example 389, 4-((2S,5R)-4-(1-(4-(((2S,6R)-2,6-dimethylmorpholino)methyl)phenyl)ethyl)-2,5-dimethylpiperazin-1-yl)-1-methyl-2-oxo-1,2-dihydropyrido[3,2-d]pyrimidine-6-carbonitrile]
IC50 (human DGKζ): 8220 nM | IC50 (human DGKα): 1000 nM | EC50 (whole blood (pERK)): 370 nM

SMILES: [2H]C([2H])([2H])n1c(=O)nc(N2C[C@@H](CC)N(C(C)c3ccc(C(F)(F)F)cc3)C[C@@H]2C)c2nc(Cl)ccc21 (single isomer, unassigned) [Example 417]
IC50 (human DGKζ): 520 nM | IC50 (human DGKα): 170 nM | EC50 (whole blood (pERK)): 20000 nM

SMILES: [2H]C([2H])([2H])n1c(=O)nc(N2C[C@@H](CC)N(C(C)c3ccc(C(F)(F)F)cc3)C[C@@H]2C)c2nc(C#N)ccc21 (single isomer, unassigned) [Example 419]
IC50 (human DGKζ): 55 nM | IC50 (human DGKα): 33 nM | EC50 (whole blood (pERK)): 20000 nM

SMILES: CCC1CN(c2nc(=O)n(C)c3ccc(C#N)nc23)[C@@H](C)CN1C(C)c1ccc(C(F)(F)F)c(CN2CCOCC2)c1 (single isomer, unassigned) [Example 351]
IC50 (human DGKζ): 1040 nM | IC50 (human DGKα): 180 nM | EC50 (whole blood (pERK)): 380 nM

SMILES: CC(c1ccc(CN2CC3(COC3)C2)cc1)N1C[C@H](C)N(c2nc(=O)n(C)c3ccc(C#N)nc23)C[C@H]1C (stereo partly drawn) [Example 393, 4-((2S,5R)-4-(1-(4-((2-oxa-6-azaspiro[3.3]heptan-6-yl)methyl)phenyl)ethyl)-2,5-dimethylpiperazin-1-yl)-1-methyl-2-oxo-1,2-dihydropyrido[3,2-d]pyrimidine-6-carbonitrile]
IC50 (human DGKζ): 125000 nM | IC50 (human DGKα): 23500 nM | EC50 (whole blood (pERK)): 3450 nM

Source: patent US11584747B2, “Substituted pyridopyrimidinonyl compounds useful as T cell activators” (BRISTOL-MYERS SQUIBB COMPANY, priority 2019, dated 2023)
